The target in one assay is T1, Carbonic anhydrase 4 (Bos taurus, UniProt Q95323).
T1 sequence (Q95323 whole entry): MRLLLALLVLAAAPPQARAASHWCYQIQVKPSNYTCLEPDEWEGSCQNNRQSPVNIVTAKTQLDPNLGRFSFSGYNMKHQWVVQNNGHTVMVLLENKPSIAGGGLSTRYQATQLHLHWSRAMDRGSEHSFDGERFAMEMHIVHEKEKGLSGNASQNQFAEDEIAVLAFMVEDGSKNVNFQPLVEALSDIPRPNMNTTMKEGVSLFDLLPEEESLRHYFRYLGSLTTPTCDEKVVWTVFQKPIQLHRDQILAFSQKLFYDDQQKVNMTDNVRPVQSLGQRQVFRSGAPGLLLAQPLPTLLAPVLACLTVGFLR

The target of another assay is Carbonic anhydrase 1 (Homo sapiens, UniProt P00915).

The structures appear in SMILES notation.

The text below walks through data of ChEMBL document CHEMBL1146110, “QSAR study on topically acting sulfonamides incorporating GABA moieties: a molecular connectivity approach” (Bioorg Med Chem Lett, 2006).

Carbonic anhydrase 1, sequence (P00915 whole entry): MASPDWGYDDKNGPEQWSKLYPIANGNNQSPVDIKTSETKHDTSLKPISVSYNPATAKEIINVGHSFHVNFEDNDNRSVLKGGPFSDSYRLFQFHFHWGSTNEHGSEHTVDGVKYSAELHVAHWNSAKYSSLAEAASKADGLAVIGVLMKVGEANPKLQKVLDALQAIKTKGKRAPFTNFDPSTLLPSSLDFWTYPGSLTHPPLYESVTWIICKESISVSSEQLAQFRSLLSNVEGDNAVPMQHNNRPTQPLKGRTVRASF

By Ki is commonly meant a measure of affinity in units of concentration, obtained from inhibition or displacement. Take `NCCCC(=O)OCCOc1ccc2nc(S(N)(=O)=O)sc2c1`: the figures for the Ki at Carbonic anhydrase 4 and on Carbonic anhydrase 1 were 11 nM and 10 nM, respectively.
Consider `NCCCC(=O)Nc1ccc(S(N)(=O)=O)cc1F`, for which the results for the Ki at Carbonic anhydrase 4 and at Carbonic anhydrase 1 were 38 nM and 530 nM, respectively.
On to `NCCCC(=O)Nc1ccc(S(N)(=O)=O)cc1I`, for which the Ki at Carbonic anhydrase 4 is 56 nM; at Carbonic anhydrase 1 it was 500 nM.
Take `NCCCC(=O)Nc1ccccc1S(N)(=O)=O`: the Ki is 243 nM on Carbonic anhydrase 4 and 20000 nM at Carbonic anhydrase 1.
In the same order, the values of `NCCCC(=O)Nc1ccc(S(N)(=O)=O)cc1` are 164 nM and 15200 nM.
`NCCCC(=O)NCCc1ccc(S(N)(=O)=O)cc1` showed a Ki at Carbonic anhydrase 4 of 62 nM.
Compound `NS(=O)(=O)c1ccc(CCO)cc1` showed a Ki at Carbonic anhydrase 4 of 5 nM. Against the preceding compound, the Ki is about 12-fold lower.
In turn, `Cn1nc(S(N)(=O)=O)s/c1=N/S(=O)(=O)c1ccc(NC(=O)CCCN)cc1` gave a Ki at Carbonic anhydrase 1 of 15 nM.
Regarding `NCCCC(=O)Nc1ccc(S(N)(=O)=O)cc1Br`, the Ki on Carbonic anhydrase 4 was 60 nM; on Carbonic anhydrase 1, 520 nM.
As to `NCCCC(=O)Nc1c(S(N)(=O)=O)cc(S(N)(=O)=O)c(Cl)c1Cl`, the results for the Ki on Carbonic anhydrase 4 and on Carbonic anhydrase 1 were 50 nM and 450 nM, respectively.
The like results for `NCCCC(=O)Nc1ccc2nc(S(N)(=O)=O)sc2c1` were, in that order, 12 nM and 14 nM.
`NCCCC(=O)NCc1ccc(S(N)(=O)=O)cc1`: at Carbonic anhydrase 4, the Ki is 69 nM. This lies in the double-digit nanomolar range.
Turning to `NCCCC(=O)Nc1cc(Cl)c(S(N)(=O)=O)cc1S(N)(=O)=O`, the Ki on Carbonic anhydrase 4 is 50 nM; at Carbonic anhydrase 1, 350 nM.
`NCCCC(=O)Nc1ccc(S(N)(=O)=O)cc1Cl`: the values for the Ki at Carbonic anhydrase 4 and on Carbonic anhydrase 1 were 63 nM and 560 nM, respectively.
For `NCCCC(=O)OCc1ccc(S(N)(=O)=O)cc1`, the Ki on Carbonic anhydrase 4 was 180 nM; at Carbonic anhydrase 1 it was 1750 nM.
For the compound `NCCCC(=O)Nc1nnc(S(N)(=O)=O)s1`, the Ki on Carbonic anhydrase 4 was 43 nM; at Carbonic anhydrase 1 it was 300 nM.
The like results for `NCCCC(=O)Oc1ccc2nc(S(N)(=O)=O)sc2c1` were, in that order, 12 nM and 15 nM.
The like results for `Cn1nc(S(N)(=O)=O)s/c1=N\C(=O)CCCN` were, in that order, 42 nM and 310 nM.
In the same order, the values of `NCCCC(=O)Nc1cccc(S(N)(=O)=O)c1` are 215 nM and 17200 nM.
With `NCCCC(=O)NNc1ccc(S(N)(=O)=O)cc1`, the figures for the Ki on Carbonic anhydrase 4 and on Carbonic anhydrase 1 were 305 nM and 22500 nM, respectively.
In the case of `NCCCC(=O)NCCC(=O)Nc1nnc(S(N)(=O)=O)s1`, the Ki on Carbonic anhydrase 4 was 15 nM; at Carbonic anhydrase 1, 24 nM.
In the case of `NCCCC(=O)Nc1ccc(S(=O)(=O)Nc2cccc(S(N)(=O)=O)c2)cc1`, the Ki was 67 nM at Carbonic anhydrase 4 and 61 nM on Carbonic anhydrase 1.
As to `CCN(C(=O)CCCN)C1CC(C)S(=O)(=O)c2sc(S(N)(=O)=O)cc21` (stereo not drawn), the Ki on Carbonic anhydrase 4 is 32 nM; at Carbonic anhydrase 1, 56 nM.
For the compound `NCCCC(=O)Nc1nccc(Nc2ccc(S(N)(=O)=O)cc2)n1`, the values for the Ki at Carbonic anhydrase 4 and on Carbonic anhydrase 1 were 50 nM and 51 nM, respectively.
For `NCCCC(=O)Nc1ccc(S(=O)(=O)Nc2ccc(S(N)(=O)=O)cc2)cc1`, the results for the Ki at Carbonic anhydrase 4 and on Carbonic anhydrase 1 were 75 nM and 63 nM, respectively.
In the same order, the values of `Cn1nc(S(N)(=O)=O)s/c1=N/S(=O)(=O)c1ccc(N)cc1` are 8 nM and 9 nM.
